# US11286268B1, “EIF4E-inhibiting compounds and methods” (EFFECTOR THERAPEUTICS, INC., priority 2019, dated 2022)
# Like-named read-outs stand apart in the source and are kept apart here.
# Biological target: recombinant eIF4E (Homo sapiens (Human), UniProt P06730)
# Experiment: Fluorescence polarization competition assay for eIF4E binding potency
# Outline: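 Competitive displacement format: compounds compete with a fluorescent m7GDP tracer (20 nM) for 75 nM recombinant eIF4E. Incubation is 30 min at room temperature, protected from light, with 1% DMSO. Polarization read gives IC50 over eight 3-fold concentrations.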
# [1] = fluorescence polarization competition, 75 nM recombinant eIF4E, 20 nM EDA-m7GDP-ATTO-550, IC50 class, read-out: elF4E FP
# [2] = inhibition of eIF4E/EDA-m7GDP-ATTO-550 binding by 50%, Table 4B calculated values, read-out: IC50
# recombinant eIF4E, sequence (P06730 whole entry): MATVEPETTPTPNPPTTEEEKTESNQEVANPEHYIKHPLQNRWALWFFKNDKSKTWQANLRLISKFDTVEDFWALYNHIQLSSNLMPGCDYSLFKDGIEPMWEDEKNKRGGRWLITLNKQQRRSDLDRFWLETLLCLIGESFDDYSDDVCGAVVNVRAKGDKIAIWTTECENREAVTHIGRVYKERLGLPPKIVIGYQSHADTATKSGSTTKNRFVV
SMILES,IC50 [1] [nM],IC50 [2] [nM]
Cc1cc(-c2nc3c(=O)n(CCOc4ccc(Cl)cc4-c4cc(C)nc5c(C(=O)O)csc45)c(C)nc3cc2C(F)(F)F)ccn1 [compound 463],< 50,8.86
Cc1cc(-c2cc(Cl)ccc2OCCn2c(C)nc3cc(C(F)(F)F)c(-c4ccncc4)nc3c2=O)c2scc(C(=O)O)c2n1 [compound 464],< 50,21.4
Cc1cc(-c2c(C(F)(F)F)cc3nc(C)n(CCOc4ccc(Cl)cc4-c4cc(C)nc5c(C(=O)O)csc45)c(=O)c3c2C#N)cc(C)n1 [compound 465],< 50,15.1
CCc1ncccc1-c1c(C(F)(F)F)cc2nc(C)n(CCOc3ccc(Cl)cc3-c3cc(C)nc4c(C(=O)O)csc34)c(=O)c2c1C#N [compound 466],< 50,9.3
Cc1cc(-c2cc(Cl)ccc2OCCn2c(C)nc3cc(C(F)(F)F)c(-c4ccccc4)nc3c2=O)c2scc(C(=O)O)c2n1 [compound 467],< 50,
CCc1cc(-c2c(C(F)(F)F)cc3nc(C)n(CCOc4ccc(Cl)cc4-c4cc(C)nc5c(C(=O)O)csc45)c(=O)c3c2C#N)ccn1 [compound 468],< 50,4.36
Cc1cc(-c2c(C(F)(F)F)cc3nc(C)n(CCOc4ccc(Cl)cc4-c4cc(C)nc5c(C(=O)O)csc45)c(=O)c3c2C#N)c(C)cn1 [compound 469],< 50,2.25
Cc1cc(-c2c(C(F)(F)F)cc3nc(C)n(CCOc4ccc(Cl)cc4-c4cc(C)nc5c(C(=O)O)csc45)c(=O)c3c2C#N)c(F)cn1 [compound 471],< 50,28.8
Cc1cc(-c2cc(Cl)ccc2OCCn2c(C)nc3cc(C(F)(F)F)c(-c4ccnc(C)c4F)c(C#N)c3c2=O)c2scc(C(=O)O)c2n1 [compound 472],< 50,23.6
Cc1cc(-c2cc(Cl)ccc2OCCn2c(C)nc3cc(C(F)(F)F)c(Cc4ncccc4F)c(C#N)c3c2=O)c2scc(C(=O)O)c2n1 [compound 473],< 50,14.5
Cc1cc(-c2cc(Cl)ccc2OCCn2c(C)nc3c(C)nc(-c4ccc(F)cc4)c(C#N)c3c2=O)c2scc(C(=O)O)c2n1 [compound 474],< 50,13.5
Cc1cc(-c2cc(Cl)ccc2OCCn2c(C)nc3c(C)nc(-c4cccc(F)c4)c(C#N)c3c2=O)c2scc(C(=O)O)c2n1 [compound 475],< 50,17
Cc1cc(-c2cc(Cl)ccc2OCCn2c(C)nc3c(C)nc(-c4ccccc4F)c(C#N)c3c2=O)c2scc(C(=O)O)c2n1 [compound 476],< 50,33.9
Cc1ccc(-c2nc(C)c3nc(C)n(CCOc4ccc(Cl)cc4-c4cc(C)nc5c(C(=O)O)csc45)c(=O)c3c2C#N)cc1 [compound 477],< 50,
Cc1cccc(-c2nc(C)c3nc(C)n(CCOc4ccc(Cl)cc4-c4cc(C)nc5c(C(=O)O)csc45)c(=O)c3c2C#N)c1 [compound 478],< 50,
Cc1cc(-c2cc(Cl)ccc2OCCn2c(C)nc3c(C)nc(-c4ccccc4C)c(C#N)c3c2=O)c2scc(C(=O)O)c2n1 [compound 479],< 50,
Cc1cc(-c2cc(Cl)ccc2OCCn2c(C)nc3c(C)nc(-c4ccc(Cl)cc4)c(C#N)c3c2=O)c2scc(C(=O)O)c2n1 [compound 480],< 50,7.39

SMILES,IC50 [1] [nM],IC50 [2] [nM]
Cc1cc(-c2cc(Cl)ccc2OCCn2c(C)nc3c(C)nc(-c4cccc(Cl)c4)c(C#N)c3c2=O)c2scc(C(=O)O)c2n1 [compound 481],< 50,10.5
Cc1cc(-c2cc(Cl)ccc2OCCn2c(C)nc3c(C)nc(-c4ccccc4Cl)c(C#N)c3c2=O)c2scc(C(=O)O)c2n1 [compound 482],< 50,
Cc1cc(-c2cc(Cl)ccc2OCCn2c(C)nc3c(CN4CCN(C)CC4)c(C(F)(F)F)cc(C#N)c3c2=O)c2scc(C(=O)O)c2n1 [compound 483],< 50,42.1
Cc1nc2cc(C(F)(F)F)cc(C#N)c2c(=O)n1CCOc1ccc(Cl)cc1-c1cc(CO)nc2c(C(=O)O)csc12 [compound 484],< 50,11.6
Cc1cc(-c2cc(Cl)ccc2OCCn2c(C)nc3cc(C(F)(F)F)c(CN4CCN(C)CC4)c(C#N)c3c2=O)c2scc(C(=O)O)c2n1 [compound 485],< 50,8.59
Cc1cc(-c2cc(Cl)ccc2OCCn2c(C)nc3c(F)cc(C(F)F)c(C#N)c3c2=O)c2scc(S(=O)(=O)O)c2n1 [compound 488],< 50,
COCc1cc(-c2cc(Cl)ccc2OCCn2c(C)nc3cc(C(F)(F)F)c(CN4CCN(C)CC4)c(C#N)c3c2=O)c2scc(C(=O)O)c2n1 [compound 489],< 50,
Cc1cc(-c2cc(Cl)ccc2OCCn2c(C)nc3c(F)cc(C(F)F)c(C#N)c3c2=O)c2cccc(C(=O)O)c2n1 [compound 490],50 to 1000,
Cc1cc(-c2cc(Cl)ccc2OCCn2c(C)nc3c(C(C)C)ncc(C#N)c3c2=O)c2scc(C(=O)O)c2n1 [compound 491],< 50,22.9
Cc1cc(-c2cc(Cl)ccc2OCCn2c(C)nc3c(C)nc(C)c(C#N)c3c2=O)c2scc(C(=O)O)c2n1 [compound 492],< 50,29.7
Cc1nc2cc(C(F)(F)F)c(CC3CN(CC(F)(F)F)C3)c(C#N)c2c(=O)n1CCOc1ccc(Cl)cc1-c1ccnc2c(C(=O)O)csc12 [compound 494],50 to 1000,85.6
Cc1cnc2c(C(=O)O)csc2c1-c1cc(Cl)ccc1OCCn1c(C)nc2cc(C(F)(F)F)cc(C#N)c2c1=O [compound 495],50 to 1000,237
Cc1nc2cc(C(F)(F)F)cc(C#N)c2c(=O)n1CCOc1ccc(Cl)cc1-c1ccnc2c1CCC2C(=O)O (stereo not drawn) [compound 496],> 1000,1060
Cc1nc2cc(C(F)(F)F)c(CN3CCOCC3)c(C#N)c2c(=O)n1CCOc1ccc(Cl)cc1-c1ccnc2c(C(=O)O)csc12 [compound 501],< 50,25.7
Cc1nc2c(F)cc(C(F)F)c(C#N)c2c(=O)n1CCOc1cc(F)c(Cl)cc1-c1ccnc2c(C(=O)O)csc12 [compound 504],< 50,22.9
Cc1nc2cc(C(F)(F)F)c(Cl)c(C#N)c2c(=O)n1CCOc1cc(F)c(Cl)cc1-c1ccnc2c(C(=O)O)csc12 [compound 505],< 50,43.6
Cc1nc2cc(C(F)(F)F)c(Cl)c(C#N)c2c(=O)n1CCOc1ccc(Cl)cc1-c1ccnc2c(C(=O)NS(C)(=O)=O)csc12 [compound 519],< 50,37.8

# Next, values leading:
IC50 [1] [nM],IC50 [2] [nM],SMILES
50 to 1000,94.2,Cc1nc2cc(Cl)c(S(C)(=O)=O)c(C#N)c2c(=O)n1CCOc1ccc(Cl)cc1-c1ccnc2c(C(=O)O)csc12 [compound 493]
< 50,24.2,Cc1nc2c(F)c(Cl)c(C(F)F)c(C#N)c2c(=O)n1CCOc1ccc(Cl)cc1-c1ccnc2c(C(=O)O)csc12 [compound 498]
< 50,38.4,Cc1nc2cc(C(F)(F)F)c(CN3CCN(C)CC3)c(C#N)c2c(=O)n1CCOc1ccc(Cl)cc1-c1ccnc2c(C(=O)O)csc12 [compound 502]
< 50,8.67,Cc1nc2cc(C(F)(F)F)c(CN(C)C)c(C#N)c2c(=O)n1CCOc1cc(F)c(Cl)cc1-c1ccnc2c(C(=O)O)csc12 [compound 503]
50 to 1000,68.9,Cc1nc2cc(F)c(F)c(C#N)c2c(=O)n1CCOc1cc(F)c(Cl)cc1-c1ccnc2c(C(=O)O)csc12 [compound 506]
< 50,49,Cc1nc2ccc(CCN(C)C)c(C#N)c2c(=O)n1CCOc1ccc(Cl)cc1-c1ccnc2c(C(=O)O)csc12 [compound 507]
< 50,15.2,Cc1nc2c(F)cc(CN(C)C)c(C#N)c2c(=O)n1CCOc1ccc(Cl)cc1-c1ccnc2c(C(=O)O)csc12 [compound 508]
50 to 1000,125,Cc1nc2cc(Cl)c(CN(C)C)c(C#N)c2c(=O)n1CCOc1ccc(Cl)cc1-c1ccnc2c(C(=O)O)csc12 [compound 509]
50 to 1000,50.5,Cc1nc2cc(C#N)c(CN(C)C)c(C#N)c2c(=O)n1CCOc1ccc(Cl)cc1-c1ccnc2c(C(=O)O)csc12 [compound 510]
50 to 1000,88,Cc1cc2cc(C#N)c(CN(C)C)c(C#N)c2c(=O)n1CCOc1ccc(Cl)cc1-c1ccnc2c(C(=O)O)csc12 [compound 511]
50 to 1000,71.8,Cc1nc2cc(CN(C)C)cc(C#N)c2c(=O)n1CCOc1ccc(Cl)cc1-c1ccnc2c(C(=O)O)csc12 [compound 512]
< 50,11.6,Cc1nc2cc(CCN(C)C)cc(C#N)c2c(=O)n1CCOc1ccc(Cl)cc1-c1ccnc2c(C(=O)O)csc12 [compound 513]
< 50,39.9,Cc1nc2cc(C(F)(F)CN(C)C)cc(C#N)c2c(=O)n1CCOc1ccc(Cl)cc1-c1ccnc2c(C(=O)O)csc12 [compound 514]
< 50,46,Cc1nc2cc(CN(C)C)c(C(F)F)c(C#N)c2c(=O)n1CCOc1ccc(Cl)cc1-c1ccnc2c(C(=O)O)csc12 [compound 515]
< 50,34.4,Cc1nc2cc(CN(C)C)c(Cl)c(C#N)c2c(=O)n1CCOc1ccc(Cl)cc1-c1ccnc2c(C(=O)O)csc12 [compound 516]
< 50,35.7,Cc1nc2cc(CN(C)C)c(F)c(C#N)c2c(=O)n1CCOc1ccc(Cl)cc1-c1ccnc2c(C(=O)O)csc12 [compound 517]
< 50,16.4,Cc1nc2c(F)c(CN(C)C)c(C(F)F)c(C#N)c2c(=O)n1CCOc1ccc(Cl)cc1-c1ccnc2c(C(=O)O)csc12 [compound 518]
< 50,18.3,Cc1nc2cc(Cl)c(C(F)F)c(C#N)c2c(=O)n1CCOc1ccc(Cl)cc1-c1ccnc2c(C(=O)NS(C)(=O)=O)csc12 [compound 520]
